Here are results for 6 molecules from US11254696B2, “Dianilinopyrimidine compound for inhibiting kinase activity” (Shenzhen Targetrx, Inc., priority 2017, dated 2022).

Series [1] deals with ALK [WT] (Homo sapiens, UniProt Q9UM73). Kind of series: Kinase inhibition assay, ALK [WT]. The class given is biochemical. On the procedure: (§1) Compound preparation: The test compounds were dissolved in DMSO to make 20 mM stock solutions. The compounds were diluted in DMSO to 0.1 mM (a dilution with 100 times the final concentration) before use, and a 3-fold series gradient dilution with 11 concentrations was made. Dilutions with 4 times of the final concentration were prepared by diluting with buffer when dosing.
(§2) Kinase assay: after preparing the buffer solution, the enzyme was mixed with pre-diluted compounds with different concentrations, and placed at room temperature for 30 minutes in duplicate. The corresponding substrate and ATP were added thereto and reacted at room temperature for 60 minutes (both a negative and a positive control were set). After the reaction, antibody was added for detection, and after incubation at room temperature for 60 minutes, Evnvision detection was carried out, and data was collected. Data was analyzed and fit according to XLfit5 software. IC50 was calculated by the following formula: (IC50=[(ABS test−ABS begin)/(ABS control−ABS begin)]×100).

Series [2] deals with ALK [L1196M] (Homo sapiens, UniProt Q9UM73, L1196M). Description: Kinase inhibition assay, ALK [L1196M]. The class given is biochemical. The procedure:
as §1, §2

The test system of series [3] is BaF3 parental. Kind of series: Cytotoxicity test (CellTiter-Glo), BaF3 parental. In kind it is cell-based. As to conditions: Mus musculus, 72 hours, read-out: IC50(nM) parental (Ba/F3). The procedure:
(§3) The in vitro anti-proliferative activity of the compounds of the present disclosure against three types of cells that are cultured in vitro was tested by CellTiter-Glo method.
(§4) Cell lines: BaF3 parental; BaF3 [EML4-ALK] (From WuXi PharmaTech) and BaF3 [EMF4-AFK F1196M] (From WuXi PharmaTech); wherein, BaF3 parental was cultured in RPMI1640 medium containing 10 ng/ml IL-3, 10% fetal bovine serum, 100 U/ml penicillin, and 100 μg/ml streptomycin, BaF3 [EMF4-AFK] and BaF3 [EMF4-AFK F1196M] were cultured in RPMI1640 medium containing 10% fetal bovine serum, 100 U/ml penicillin, and 100 μg/ml streptomycin.
(§5) Reagents and materials: RPMI-1640 (GIBCO, Cat. No. A10491-01); fetal bovine serum (GIBCO, Cat. No. 10099141); 0.25% trypsin-EDTA (GIBCO, Cat. No. 25200); penicillin-streptomycin, liquid (GIBCO, Cat. No. 15140-122); DMSO (Sigma, Cat. No. D2650); CellTiter-Glo Test Kit (Promega, Cat. No. G7572), and 96-well plate (Corning, Cat. No. 3365).
(§6) 1. The test compounds were dissolved in DMSO to make stock solutions and subjected to a series gradient dilution to give solutions with 10-fold working concentration.
(§7) 2. The cells in the logarithmic growth phase were diluted with the culture solution to adjust to the specific cell concentration, 90 μi of cell suspension was added to the 96-well plate to make the cell density reach the specified concentration. The plate was incubated in a incubator at 37° C., containing 5% carbon dioxide gas overnight.
(§8) 3. 10 μl drug solutions were added to each well of the 96-well plate inoculated with cells. 10 concentrations of the compounds were tested starting from the highest concentration of 20 μM with a 3-fold series gradient dilution in duplicate.
(§9) 4. After continuously cultured for 72 hours, the cells were detected by CellTiter-Glo for the cell viability. The dose-effect curve was made using GraphPad Prism software and IC50 was calculated.

In series [4] the target is T1, BaF3 [EML4-ALK] (Homo sapiens, UniProt Q9UM73).
T1 construct: IC50(nM) ALK (Ba/F3); other: 72 hours, CellTiter-Glo; BaF3 [EML4-ALK]; fused on or other part: Q9HC35 (Echinoderm microtubule-associated protein-like 4)
Kind of series: Cytotoxicity test (CellTiter-Glo), BaF3 [EML4-ALK]. In kind it is cell-based. As to conditions: 72 hours, CellTiter-Glo; read-out: IC50(nM) ALK (Ba/F3). The procedure: as §3, §4, §5, §6, §7, §8, §9

For series [5], the system named is BaF3 [EML4-ALK]. Description: Cytotoxicity test (CellTiter-Glo), BaF3 [EML4-ALK]. In kind it is cell-based. As to conditions: Ba/F3 cells. On the procedure:
as §3, §4, §5, §6, §7, §8, §9

Series [6] concerns the target T2, ALK[L1196M] (Ba/F3) (Homo sapiens, UniProt Q9UM73, L1196M, cells depend on it).
T2 construct: IC50(nM) ALK[L1196M]; (Ba/F3); other: 72 hours, CellTiter-Glo; BaF3 [EMF4-AFK F1196M]; fused on or other part: Q9HC35 (Echinoderm microtubule-associated protein-like 4)
Description: Cytotoxicity test (CellTiter-Glo), BaF3 EML4-ALK L1196M. As to conditions: 72 hours, CellTiter-Glo; read-out: IC50(nM) ALK[L1196M] (Ba/F3). In kind it is cell-based. The procedure:
as §3, §4, §5, §6, §7, §8, §9

Series [7] relates to ALK[L1196M] (Ba/F3). The series is described as above. As to conditions: Ba/F3 cells. In kind it is cell-based. The procedure: as §3, §4, §5, §6, §7, §8, §9
Series [8] is described as follows: Metabolic stability in human liver microsomes. In kind it is in vitro ADME. As to conditions: pH 7.4, 1 μM compound, 0.5 mg/mL protein; for microsomal CLint at 1 μM: read-out: CLint (uL/min/mg), Human liver microsome experiment; for half-life at 1 μM: read-out: t1/2 (min), Human liver microsome experiment. On the procedure:
(§10) Experiments in microsomes: Human liver microsomes: 0.5 mg/mL, Xenotech; Rat liver microsomes: 0.5 mg/mL, Xenotech; Coenzyme (NADPH/NADH): 1 mM, Sigma Life Science; Magnesium chloride: 5 mM, 100 mM phosphate buffer (pH 7.4).
(§11) Preparation of stock solution: Powder of the example compounds was accurately weighed and dissolved in DMSO to 5 mM. Preparation of phosphate buffer (100 mM, pH7.4): A pre-formulated 0.5M potassium dihydrogen phosphate (150 mL) was mixed with 0.5M dibasic potassium phosphate (700 mL). The pH of the mixture was adjusted to 7.4 with 0.5M dibasic potassium phosphate solution. The mixture was diluted 5-fold with ultrapure water before use, and magnesium chloride was added to obtain a phosphate buffer (100 mM) containing 100 mM potassium phosphate, 3.3 mM magnesium chloride, pH7.4. A NADPH regeneration system solution (containing 6.5 mM NADP, 16.5 mM G-6-P, 3 U/mL G-6-PD, 3.3 mM magnesium chloride) was prepared and placed on wet ice prior to use. Preparation of stop solution: acetonitrile solution containing 50 ng/mL propranolol hydrochloride and 200 ng/mL tolbutamide (internal standard). 25057.5 μL of phosphate buffer (pH 7.4) was taken into a 50 mL centrifuge tube, to which 812.5 μL human liver microsomes were added, and mixed to obtain a liver microsome dilution solution with a protein concentration of 0.625 mg/mL. 25057.5 μL of phosphate buffer (pH 7.4) was taken into a 50 mL centrifuge tube, to which 812.5 μL SD rat liver microsomes were added, and mixed to obtain a liver microsome dilution solution with a protein concentration of 0.625 mg/mL.
(§12) Incubation of the samples: The stock solution of the respective compound was respectively diluted to 0.25 mM with an aqueous solution containing 70% acetonitrile, and used as a working solution, ready for use. 398 μL of the dilution solution of human liver microsomes or rat liver microsome were added to a 96-well incubation plate (N=2), respectively, and 2 μL of 0.25 mM working solution was added and mixed.
(§13) Metabolic stability assay: 300 μL of pre-chilled stop solution was added to each well of a 96-well deep well plate and placed on ice as a stop plate. The 96 well incubation plate and NADPH regeneration system were placed in a 37° C. water bath box, shaken at 100 rpm and pre-incubated for 5 min. 80 μL of incubation solution was taken out from each well of the incubation plate and added to the stop plate, mixed, and replenished with 20 μL of NADPH regeneration system solution as a 0-min sample. 80 μL of NADPH regeneration system solution was added to each well of the incubation plate to start the reaction and start counting. […] Separately, 100 μL of the reaction solution was taken at 10, 30, and 90 min reaction, respectively, added to a stop plate, and vortexed for 3 minutes to terminate the reaction. The stop plate was centrifuged at 5000×g at 4° C. for 4 min. 100 μL of the supernatant was added to a 96-well plate to which 100 μL of distilled water was previously added, mixed, and analyzed by LC-MS/MS.
(§14) Data analysis: The peak areas of the corresponding compound and internal standard were detected by LC-MS/MS system, and the ratio of the peak area of the compound to the internal standard was calculated.

Series [9] in a line: Metabolic stability in rat liver microsomes. The class given is in vitro ADME. As to conditions: SD, pH 7.4, 1 μM compound, 0.5 mg/mL protein; for microsomal CLint at 1 μM: read-out: CLint (uL/min/mg), Rat liver microsome experiment; for half-life at 1 μM: read-out: t1/2 (min), Rat liver microsome experiment. On the procedure: as §10, §11, §12, §13, §14

T1 sequence (Q9UM73 whole entry, change not shown, the tested form may be a part): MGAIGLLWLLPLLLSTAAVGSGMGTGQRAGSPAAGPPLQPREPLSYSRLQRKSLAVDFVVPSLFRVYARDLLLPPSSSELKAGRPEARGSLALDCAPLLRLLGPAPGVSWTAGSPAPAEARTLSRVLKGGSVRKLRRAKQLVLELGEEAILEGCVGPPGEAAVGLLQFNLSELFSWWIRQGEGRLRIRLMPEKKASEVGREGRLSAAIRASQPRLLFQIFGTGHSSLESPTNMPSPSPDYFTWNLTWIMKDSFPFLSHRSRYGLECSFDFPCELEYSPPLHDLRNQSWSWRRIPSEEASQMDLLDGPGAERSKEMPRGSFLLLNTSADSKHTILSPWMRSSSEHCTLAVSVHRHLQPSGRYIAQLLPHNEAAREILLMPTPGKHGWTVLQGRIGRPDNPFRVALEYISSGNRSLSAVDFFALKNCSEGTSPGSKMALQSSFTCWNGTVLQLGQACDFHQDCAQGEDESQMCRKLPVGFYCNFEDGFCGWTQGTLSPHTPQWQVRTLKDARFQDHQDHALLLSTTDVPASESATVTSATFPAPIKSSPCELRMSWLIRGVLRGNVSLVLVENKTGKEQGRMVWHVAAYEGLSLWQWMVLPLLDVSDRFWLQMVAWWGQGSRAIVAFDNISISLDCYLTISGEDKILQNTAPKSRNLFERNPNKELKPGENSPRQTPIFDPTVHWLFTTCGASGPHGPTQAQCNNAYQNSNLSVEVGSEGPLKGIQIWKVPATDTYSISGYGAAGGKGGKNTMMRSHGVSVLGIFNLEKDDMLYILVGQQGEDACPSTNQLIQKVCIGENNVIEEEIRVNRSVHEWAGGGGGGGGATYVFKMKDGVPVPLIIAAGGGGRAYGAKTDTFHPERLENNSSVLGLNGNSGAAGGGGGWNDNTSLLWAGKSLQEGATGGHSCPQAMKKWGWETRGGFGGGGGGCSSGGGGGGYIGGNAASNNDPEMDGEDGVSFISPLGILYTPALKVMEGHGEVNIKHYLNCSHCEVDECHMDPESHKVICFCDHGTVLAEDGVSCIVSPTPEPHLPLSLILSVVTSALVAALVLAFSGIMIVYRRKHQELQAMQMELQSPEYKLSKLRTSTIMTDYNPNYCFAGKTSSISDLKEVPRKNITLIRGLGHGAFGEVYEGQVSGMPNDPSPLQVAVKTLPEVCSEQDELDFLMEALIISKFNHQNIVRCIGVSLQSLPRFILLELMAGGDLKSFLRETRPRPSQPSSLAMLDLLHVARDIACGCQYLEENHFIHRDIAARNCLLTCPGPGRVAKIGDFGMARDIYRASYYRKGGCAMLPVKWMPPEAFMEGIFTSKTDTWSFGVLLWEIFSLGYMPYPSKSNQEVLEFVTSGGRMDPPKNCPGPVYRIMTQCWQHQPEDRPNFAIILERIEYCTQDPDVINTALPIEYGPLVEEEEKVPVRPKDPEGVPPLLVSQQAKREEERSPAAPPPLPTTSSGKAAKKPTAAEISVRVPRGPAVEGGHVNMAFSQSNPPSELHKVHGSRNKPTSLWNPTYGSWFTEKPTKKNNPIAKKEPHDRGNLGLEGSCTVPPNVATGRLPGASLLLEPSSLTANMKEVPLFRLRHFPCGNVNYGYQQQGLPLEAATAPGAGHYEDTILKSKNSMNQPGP
T2 sequence (Q9UM73 whole entry L1196M, the tested form may be a part): as the sequence (Q9UM73 whole entry, change not shown, the tested form may be a part) above, with L1196M counted along it
Sequence of ALK [L1196M] (Q9UM73 19-1620 L1196M): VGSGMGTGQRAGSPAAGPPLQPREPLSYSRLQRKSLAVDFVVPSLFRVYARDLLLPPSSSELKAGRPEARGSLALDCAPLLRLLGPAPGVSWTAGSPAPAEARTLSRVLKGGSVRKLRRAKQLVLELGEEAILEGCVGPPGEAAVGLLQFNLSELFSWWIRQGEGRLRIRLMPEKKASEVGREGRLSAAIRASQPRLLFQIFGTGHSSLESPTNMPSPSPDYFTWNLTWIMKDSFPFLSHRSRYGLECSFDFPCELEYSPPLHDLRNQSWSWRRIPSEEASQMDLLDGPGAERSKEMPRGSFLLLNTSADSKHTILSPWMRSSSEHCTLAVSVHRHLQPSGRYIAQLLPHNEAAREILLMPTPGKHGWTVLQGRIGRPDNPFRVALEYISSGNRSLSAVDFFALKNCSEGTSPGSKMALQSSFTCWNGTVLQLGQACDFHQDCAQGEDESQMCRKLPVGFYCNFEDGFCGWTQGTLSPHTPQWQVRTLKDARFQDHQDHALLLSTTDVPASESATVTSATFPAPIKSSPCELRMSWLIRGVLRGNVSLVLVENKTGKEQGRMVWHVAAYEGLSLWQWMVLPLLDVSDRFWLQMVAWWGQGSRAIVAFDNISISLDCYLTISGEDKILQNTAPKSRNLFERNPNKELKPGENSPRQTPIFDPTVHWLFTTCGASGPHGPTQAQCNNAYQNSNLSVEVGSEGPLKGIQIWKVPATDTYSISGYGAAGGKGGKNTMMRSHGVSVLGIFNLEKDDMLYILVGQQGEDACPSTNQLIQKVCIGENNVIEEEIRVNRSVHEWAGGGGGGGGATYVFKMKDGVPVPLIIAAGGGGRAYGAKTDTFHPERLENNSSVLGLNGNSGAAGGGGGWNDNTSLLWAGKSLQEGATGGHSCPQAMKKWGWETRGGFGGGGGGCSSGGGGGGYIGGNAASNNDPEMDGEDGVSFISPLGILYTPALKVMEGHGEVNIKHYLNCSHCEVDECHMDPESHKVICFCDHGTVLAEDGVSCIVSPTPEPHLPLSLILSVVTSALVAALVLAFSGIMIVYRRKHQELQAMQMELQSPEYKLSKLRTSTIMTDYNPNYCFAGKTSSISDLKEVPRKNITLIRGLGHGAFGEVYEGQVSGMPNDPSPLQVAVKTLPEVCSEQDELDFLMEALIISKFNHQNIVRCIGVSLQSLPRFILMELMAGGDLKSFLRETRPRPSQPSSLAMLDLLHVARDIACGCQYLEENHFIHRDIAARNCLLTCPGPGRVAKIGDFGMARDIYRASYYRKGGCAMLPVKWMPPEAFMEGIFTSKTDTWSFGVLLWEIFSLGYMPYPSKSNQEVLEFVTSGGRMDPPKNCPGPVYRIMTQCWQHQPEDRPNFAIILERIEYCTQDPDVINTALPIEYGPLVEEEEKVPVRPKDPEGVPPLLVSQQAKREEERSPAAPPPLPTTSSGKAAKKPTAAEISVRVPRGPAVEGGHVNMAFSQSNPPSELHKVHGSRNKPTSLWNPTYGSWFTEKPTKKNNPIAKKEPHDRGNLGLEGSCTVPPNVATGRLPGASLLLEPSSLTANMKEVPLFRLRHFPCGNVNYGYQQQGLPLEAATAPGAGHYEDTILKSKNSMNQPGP
Sequence of ALK [WT] (Q9UM73 19-1620): as the sequence (Q9UM73 19-1620 L1196M) above, with M1178L counted along it

Turning to `CNC(C)(C)c1ccc(Nc2ncc(Cl)c(Nc3ccccc3P(C)(C)=O)n2)c(OC)c1` [Example 15, (2-((5-chloro-2-((2-methoxy-4-(2-(methylamino)propan-2-yl)phenyl)amino)pyrimidin-4-yl)amino)phenyl)dimethylphosphine oxide], the IC50 is no more than 2 nM in series [1], no more than 2 nM in series [2] and no less than 1000 nM in series [3]. Moreover, the GI50 in series [4] is 50 to 100 nM; in series [6], 100 to 200 nM. The “Selectivity parental/ALK” value in series [5] is less than 50. Besides, the “Selectivity parental/ALK[L1196M]” value in series [7] was less than 50. Besides, the results for the microsomal CLint at 1 μM in series [8] and in series [9] were 20.7 µL/min/mg and 17.6 µL/min/mg, respectively. Also, the half-life at 1 μM in series [8] was determined as 66.9 min; in series [9] it was 78.8 min.
On to `COc1cc(CCN(C)C)ccc1Nc1ncc(Cl)c(Nc2ccccc2P(C)(C)=O)n1` [Example 3, (2-((5-chloro-2-((4-(2-(dimethylamino)ethyl)-2-methoxyphenyl)amino)pyrimidin-4-yl)amino)phenyl)dimethylphosphine oxide], for which the IC50 in [1] is no more than 2 nM; in series [2] it was 2 to 5 nM; in series [3] it was no less than 1000 nM. The GI50 in series [4] was 25 to 50 nM; in series [6], 100 to 200 nM. In addition, in series [5], the “Selectivity parental/ALK” value was in the range of 50 to 100. Moreover, in series [7], the “Selectivity parental/ALK[L1196M]” value was less than 50. The microsomal CLint at 1 μM in series [8] came out at 15.4 µL/min/mg; in series [9], 50.4 µL/min/mg. Also, the half-life at 1 μM in series [8] turned out to be 90.1 min; in series [9], 27.5 min.
On to `COc1cc(CN(C)C)ccc1Nc1ncc(Cl)c(Nc2ccccc2P(C)(C)=O)n1` [Example 1, (2-((5-chloro-2-((4-((dimethylamino)methyl)-2-methoxyphenyl)amino)pyrimidin-4-yl)amino)phenyl)dimethylphosphine oxide], for which the IC50 in series [1] was 5 to 10 nM; in series [2], 5 to 10 nM; in [3], no less than 1000 nM. The GI50 in series [4] was in the range of 50 to 100 nM; in series [6], 100 to 200 nM. For the same molecule, the “Selectivity parental/ALK” value in series [5] is less than 50. Further, the “Selectivity parental/ALK[L1196M]” value in [7] is recorded as less than 50. Also, the microsomal CLint at 1 μM came to 10.6 µL/min/mg in series [8] and 43.4 µL/min/mg in [9]. Moreover, the half-life at 1 μM in [8] is 131 min; in series [9], 31.9 min.
Regarding `COc1cc(C(C)(C)N)ccc1Nc1ncc(Cl)c(Nc2ccccc2P(C)(C)=O)n1` [Example 13, (2-((2-((4-(2-aminopropan-2-yl)-2-methoxyphenyl)amino)-5-chloropyrimidin-4-yl)amino)phenyl)dimethylphosphine oxide], the IC50 is no more than 2 nM in [1], no more than 2 nM in series [2] and no less than 1000 nM in series [3]. Besides, the GI50 in [4] lay in the range of 25 to 50 nM; in series [6], 100 to 200 nM. Further, in series [5], the “Selectivity parental/ALK” value was less than 50. For the same molecule, the “Selectivity parental/ALK[L1196M]” value in [7] is on record as less than 50. Moreover, the microsomal CLint at 1 μM in [8] turned out to be 11.7 µL/min/mg; in series [9], 9.1 µL/min/mg. The half-life at 1 μM in [8] is 119 min; in [9] it was 152 min.
Consider `CNCCc1cc(OC)c(Nc2ncc(Cl)c(Nc3ccccc3P(C)(C)=O)n2)cc1C` [Example 21, (2-((5-chloro-2-((2-methoxy-5-methyl-4-(2-(methylamino)ethyl)phenyl)amino)pyrimidin-4-yl)amino)phenyl)dimethylphosphine oxide], for which the IC50 in [1] is 2 to 5 nM; in series [2], 5 to 10 nM; in [3], no less than 1000 nM. Besides, the GI50 in series [4] was 100 to 200 nM; in series [6] it was 200 to 1000 nM. Further, the “Selectivity parental/ALK” value in [5] was less than 50. Moreover, the “Selectivity parental/ALK[L1196M]” value in series [7] is less than 50. Also, the microsomal CLint at 1 μM in series [8] stood at 27.7 µL/min/mg; in series [9], 7.2 µL/min/mg. The half-life at 1 μM in series [8] is 50 min; in series [9], 193 min.
Consider `COc1cc(C(C)CN)ccc1Nc1ncc(Cl)c(Nc2ccccc2P(C)(C)=O)n1` (stereo not drawn) [Example 16, (2-((2-((4-(1-aminopropan-2-yl)-2-methoxyphenyl)amino)-5-chloropyrimidin-4-yl)amino)phenyl)dimethylphosphine oxide], for which the values for the IC50 in series [1], in series [2] and in series [3] were 5 to 10 nM, 5 to 10 nM and no less than 1000 nM, respectively. Also, the GI50 in series [4] and in [6] was 200 to 1000 nM in each case. In addition, the “Selectivity parental/ALK” value in [5] was 50 to 100. The “Selectivity parental/ALK[L1196M]” value in series [7] is given as less than 50. The microsomal CLint at 1 μM in series [8] turned out to be 21.5 µL/min/mg; in series [9], 11.7 µL/min/mg. Further, the results for the half-life at 1 μM in [8] and in [9] were 64.6 min and 118 min, respectively.
